Results from patent publication US11254668B2, “Pyrazolo[1,5-A]pyrazin-4-yl and related derivatives” (Pfizer Inc., priority 2017, dated 2022).
pIC50: −log10 of the molar value. Where two headings read alike, the source gives them in different places.

What was measured:
Format in all cases: biochemical
[1] = target: JAK2 (Homo sapiens (Human), UniProt O60674); test: JAK Caliper Enzyme Assay at 1 mM ATP, JAK2
Summary of the method: (§1)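 Inhibition is measured as reduced phosphorylation of a synthetic peptide by the recombinant human kinase domain at 1 mM ATP. Conditions give 20–30% conversion at room temperature before EDTA quench, and on-chip separation of labelled substrate and product yields percent conversion for dose–response plotting.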

[2] = target: TYK2 (Homo sapiens (Human), UniProt P29597); test: JAK Caliper Enzyme Assay at 1 mM ATP, TYK2
Summary of the method: as §1

[3] = target: JAK1 (Homo sapiens (Human), UniProt P23458); test: JAK Caliper Enzyme Assay at 1 mM ATP, JAK1
Summary of the method: (§2)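 IC50 (nM) derived from percent conversion of fluorescently labelled peptide, measured by Caliper LabChip mobility-shift separation after EDTA stop. Each JAK family kinase domain (human, recombinant) run at 1 mM ATP and room temperature, conditions set to 20-30% product; DMSO wells define uninhibited baseline.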

[4] = target: JAK3 (Homo sapiens (Human), UniProt P52333); test: JAK Caliper Enzyme Assay at 1 mM ATP, JAK3
Summary of the method: as §2

Chain of JAK3 (P52333 822-1111): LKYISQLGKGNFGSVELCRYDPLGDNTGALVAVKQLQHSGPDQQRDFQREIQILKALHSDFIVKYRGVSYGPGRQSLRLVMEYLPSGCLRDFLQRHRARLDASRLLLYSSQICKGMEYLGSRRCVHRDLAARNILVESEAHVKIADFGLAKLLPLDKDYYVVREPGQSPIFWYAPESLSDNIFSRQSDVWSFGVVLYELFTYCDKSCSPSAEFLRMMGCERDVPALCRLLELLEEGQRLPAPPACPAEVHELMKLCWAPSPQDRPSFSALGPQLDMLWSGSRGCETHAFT
Chain of TYK2 (P29597 897-1176): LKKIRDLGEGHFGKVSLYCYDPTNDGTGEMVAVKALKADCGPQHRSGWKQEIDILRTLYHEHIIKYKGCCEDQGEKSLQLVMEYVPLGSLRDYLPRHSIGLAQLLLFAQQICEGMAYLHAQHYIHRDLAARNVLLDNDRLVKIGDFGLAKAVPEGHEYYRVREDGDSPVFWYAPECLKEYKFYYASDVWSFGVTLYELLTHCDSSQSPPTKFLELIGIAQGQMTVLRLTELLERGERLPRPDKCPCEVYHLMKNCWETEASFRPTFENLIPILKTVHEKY
Chain of JAK2 (O60674 849-1124): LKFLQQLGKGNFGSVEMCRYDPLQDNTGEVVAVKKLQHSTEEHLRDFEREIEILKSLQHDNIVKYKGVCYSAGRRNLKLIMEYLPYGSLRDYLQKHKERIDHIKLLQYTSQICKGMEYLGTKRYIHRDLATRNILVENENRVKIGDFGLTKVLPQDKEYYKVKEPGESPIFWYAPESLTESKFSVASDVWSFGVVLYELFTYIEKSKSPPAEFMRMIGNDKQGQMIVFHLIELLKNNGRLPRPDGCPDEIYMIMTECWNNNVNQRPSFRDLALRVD
Chain of JAK1 (P23458 875-1153): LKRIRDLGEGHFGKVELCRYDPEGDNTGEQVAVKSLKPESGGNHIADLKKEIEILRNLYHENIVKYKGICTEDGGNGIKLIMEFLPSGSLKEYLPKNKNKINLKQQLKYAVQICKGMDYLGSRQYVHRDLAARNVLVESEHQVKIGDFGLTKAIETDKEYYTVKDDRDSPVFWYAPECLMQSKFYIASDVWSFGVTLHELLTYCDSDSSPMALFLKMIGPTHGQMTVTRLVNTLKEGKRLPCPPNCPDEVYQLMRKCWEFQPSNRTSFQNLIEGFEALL

Row | SMILES | pIC50 [1] | pIC50 [2] | pIC50 [3] | pIC50 [4] | pIC50 ([1]; JAK Caliper enzyme assay) | pIC50 ([2]; JAK Caliper enzyme assay) | pIC50 ([3]; JAK Caliper enzyme assay) | pIC50 ([4]; JAK Caliper enzyme assay)
1 | CS(=O)(=O)N1CC(CC#N)(n2ncc(-c3cc(-c4cccnc4N)cc4ncccc34)n2)C1 [Example 361, [3-{4-[7-(2-aminopyridin-3-yl)quinolin-5-yl]-2H-1,2,3-triazol-2-yl}-1-(methylsulfonyl)azetidin-3-yl]acetonitrile] | < 5.00 | 5.44 | < 5.00 | < 5.00 | – | – | – | –
2 | CS(=O)(=O)N1CC(CC#N)(n2ncc(-c3cc(-c4cccc(C(N)=O)c4)cc4ncccc34)n2)C1 [Example 430, 3-(5-{2-[3-(cyanomethyl)-1-(methylsulfonyl)azetidin-3-yl]-2H-1,2,3-triazol-4-yl}quinolin-7-yl)benzamide] | – | – | – | – | 6.04 | 7.03 | 5.50 | < 5.00
3 | CS(=O)(=O)N1CC(CC#N)(n2ncc(-c3cc(-c4cc(O)cc(F)c4)cc4ncccc34)n2)C1 [Example 443] | – | – | – | – | 5.19 | 6.20 | < 5.00 | < 5.00
4 | Cn1cc(-c2cc3ncccc3c(-c3cn(C4(CC#N)CN(CC(F)(F)F)C4)nn3)n2)cn1 [Example 280, [3-{4-[7-(1-methyl-1H-pyrazol-4-yl)-1,6-naphthyridin-5-yl]-1H-1,2,3-triazol-1-yl}-1-(2,2,2-trifluoroethyl)azetidin-3-yl]acetonitrile] | 7.55 | 8.05 | 6.74 | 5.49 | – | – | – | –
5 | CC(=O)Nc1cc(-c2cc3ncccc3c(-c3ccn(C4(CC#N)CN(S(C)(=O)=O)C4)n3)n2)cnc1NC(C)=O [Example 231, N,N′-[5-(5-{1-[3-(cyanomethyl)-1-(methylsulfonyl)azetidin-3-yl]-1H-pyrazol-3-yl}-1,6-naphthyridin-7-yl)pyridine-2,3-diyl]diacetamide] | 5.10 | 6.02 | 5.24 | < 5.00 | – | – | – | –
6 | Cn1nc(CO)cc1-c1cc2ncccc2c(-c2ccn([C@]3(CC#N)C[C@H](C#N)C3)n2)n1 [Example 61, cis-3-(cyanomethyl)-3-(3-{7-[3-(hydroxymethyl)-1-methyl-1H-pyrazol-5-yl]-1,6-naphthyridin-5-yl}-1H-pyrazol-1-yl)cyclobutanecarbonitrile] | 6.91 | 7.41 | 6.28 | < 5.00 | – | – | – | –
7 | N#CC[C@]1(n2cc(-c3cc(-c4nc(CO)cs4)cc4nccn34)cn2)C[C@@H](C#N)C1 [Example 467, cis-3-(cyanomethyl)-3-(4-{7-[4-(hydroxymethyl)-1,3-thiazol-2-yl]imidazo[1,2-a]pyridin-5-yl}-1H-pyrazol-1-yl)cyclobutanecarbonitrile] | – | – | – | – | 6.29 | 7.29 | 5.80 | < 5.00
8 | N#CC[C@]1(n2ccc(-c3nc(-c4c[nH]nc4N)cc4ncccc34)n2)C[C@H](C#N)C1 [Example 98, trans-3-{3-[7-(3-amino-1H-pyrazol-4-yl)-1,6-naphthyridin-5-yl]-1H-pyrazol-1-yl}-3-(cyanomethyl)cyclobutanecarbonitrile] | 7.48 | 8.10 | 7.14 | 5.28 | – | – | – | –
9 | N#CC[C@]1(n2ccc(-c3nc(-c4ccnc(CO)c4)cc4ncccc34)n2)C[C@@H](C#N)C1 [Example 213, cis-3-(cyanomethyl)-3-(3-{7-[2-(hydroxymethyl)pyridin-4-yl]-1,6-naphthyridin-5-yl}-1H-pyrazol-1-yl)cyclobutanecarbonitrile] | 7.34 | 7.72 | 7.06 | 5.36 | – | – | – | –
10 | Cc1cc(-c2cc3ncccc3c(-c3ccn([C@]4(CC#N)C[C@](C)(C#N)C4)n3)n2)n[nH]1 [Example 45, cis-3-(cyanomethyl)-1-methyl-3-{3-[7-(5-methyl-1H-pyrazol-3-yl)-1,6-naphthyridin-5-yl]-1H-pyrazol-1-yl}cyclobutanecarbonitrile] | 6.90 | 7.48 | 6.13 | < 5.00 | – | – | – | –
11 | Cn1cc(-c2cn3ncnc3c(-c3cnn(C4(CC#N)CN(CC#N)C4)c3)n2)cn1 [Example 477, 2,2′-(3-{4-[6-(1-methyl-1H-pyrazol-4-yl)[1,2,4]triazolo[1,5-a]pyrazin-8-yl]-1H-pyrazol-1-yl}azetidine-1,3-diyl)diacetonitrile] | – | – | – | – | 5.58 | 6.58 | < 5.00 | < 5.00
12 | CS(=O)(=O)N1CC(CC#N)(n2ccc(-c3nc(-c4cnc5[nH]c(=O)[nH]c5c4)cc4ncccc34)n2)C1 [Example 169, [1-(methylsulfonyl)-3-{3-[7-(2-oxo-2,3-dihydro-1H-imidazo[4,5-b]pyridin-6-yl)-1,6-naphthyridin-5-yl]-1H-pyrazol-1-yl}azetidin-3-yl]acetonitrile] | 6.62 | 7.66 | < 5.00 | < 5.00 | – | – | – | –
13 | N#CC[C@]1(n2ncc(-c3cc(-c4cnn5cccnc45)cc4ncccc34)n2)C[C@@H](C#N)C1 [Example 419, cis-3-(cyanomethyl)-3-{4-[7-(pyrazolo[1,5-a]pyrimidin-3-yl)quinolin-5-yl]-2H-1,2,3-triazol-2-yl}cyclobutanecarbonitrile] | – | – | – | – | 6.70 | 6.98 | 6.13 | < 5.00
14 | Cn1cc(-c2cc(-c3ccn(C4(CC#N)CN(CC(F)(F)F)C4)n3)c3cccnc3c2)cn1 [Example 285, [3-{3-[7-(1-methyl-1H-pyrazol-4-yl)quinolin-5-yl]-1H-pyrazol-1-yl}-1-(2,2,2-trifluoroethyl)azetidin-3-yl]acetonitrile] | 5.53 | 6.47 | < 5.00 | < 5.00 | – | – | – | –
15 | N#CCC1(n2ncc(-c3cc(-c4cccc5c4NC(=O)C5)cc4ncccc34)n2)CC(C#N)C1 (stereo not drawn) [Example 450, trans-3-(cyanomethyl)-3-{4-[7-(2-oxo-2,3-dihydro-1H-indol-7-yl)quinolin-5-yl]-2H-1,2,3-triazol-2-yl}cyclobutanecarbonitrile] | – | – | – | – | < 5.00 | 5.85 | < 5.00 | < 5.00
16 | Cn1ncc(-c2cc3ncccc3c(-c3ccn([C@]4(CC#N)C[C@H](C#N)C4)n3)n2)c1N [Example 142, cis-3-{3-[7-(5-amino-1-methyl-1H-pyrazol-4-yl)-1,6-naphthyridin-5-yl]-1H-pyrazol-1-yl}-3-(cyanomethyl)cyclobutanecarbonitrile] | 7.52 | 7.72 | 7.28 | 5.67 | – | – | – | –
17 | N#CC[C@]1(n2ncc(-c3cc(-c4cnc5ncccn45)cc4ncccc34)n2)C[C@H](C#N)C1 [Example 418, trans-3-(cyanomethyl)-3-{4-[7-(imidazo[1,2-a]pyrimidin-3-yl)quinolin-5-yl]-2H-1,2,3-triazol-2-yl}cyclobutanecarbonitrile] | – | – | – | – | 5.09 | 5.81 | < 5.00 | < 5.00
18 | Cn1cc(-c2cc(-c3cnn([C@]4(CC#N)C[C@H](C#N)C4)n3)n3ccnc3c2)cn1 [Example 473, cis-3-(cyanomethyl)-3-{4-[7-(1-methyl-1H-pyrazol-4-yl)imidazo[1,2-a]pyridin-5-yl]-2H-1,2,3-triazol-2-yl}cyclobutanecarbonitrile] | – | – | – | – | 5.71 | 7.05 | 5.19 | < 5.00
19 | C[C@]1(C#N)C[C@](CC#N)(n2ccc(-c3nc(-c4cc[nH]n4)cc4ncccc34)n2)C1 [Example 36, trans-3-(cyanomethyl)-1-methyl-3-{3-[7-(1H-pyrazol-3-yl)-1,6-naphthyridin-5-yl]-1H-pyrazol-1-yl}cyclobutanecarbonitrile] | 5.24 | 5.98 | 5.15 | < 5.00 | – | – | – | –
20 | CO[C@H]1C[C@](CC#N)(n2ccc(-c3nc(-c4c[nH]nc4N)cc4ncccc34)n2)C1 [Example 95, (trans-1-{3-[7-(3-amino-1H-pyrazol-4-yl)-1,6-naphthyridin-5-yl]-1H-pyrazol-1-yl}-3-methoxycyclobutyl)acetonitrile] | 6.45 | 7.66 | 6.00 | < 5.00 | – | – | – | –
21 | COc1ccc(-c2cc3ncccc3c(-c3ccn(C4(CC#N)CN(CC(F)(F)F)C4)n3)n2)cn1 [Example 188, [3-{3-[7-(6-methoxypyridin-3-yl)-1,6-naphthyridin-5-yl]-1H-pyrazol-1-yl}-1-(2,2,2-trifluoroethyl)azetidin-3-yl]acetonitrile] | 6.04 | 7.10 | 5.57 | < 5.00 | – | – | – | –
22 | N#CC[C@]1(n2ccc(-c3nc(-c4cc(CO)[nH]n4)cc4ncccc34)n2)C[C@@H](C#N)C1 [Example 49, cis-3-(cyanomethyl)-3-(3-{7-[5-(hydroxymethyl)-1H-pyrazol-3-yl]-1,6-naphthyridin-5-yl}-1H-pyrazol-1-yl)cyclobutanecarbonitrile] | 7.80 | 8.15 | 7.38 | 5.64 | – | – | – | –
23 | CN(C)CCn1cc(-c2cc3ncccc3c(-c3ccn([C@]4(CC#N)C[C@H](C#N)C4)n3)n2)cn1 [Example 114, cis-3-(cyanomethyl)-3-[3-(7-{1-[2-(dimethylamino)ethyl]-1H-pyrazol-4-yl}-1,6-naphthyridin-5-yl)-1H-pyrazol-1-yl]cyclobutanecarbonitrile] | 7.39 | 7.34 | 6.39 | 5.93 | – | – | – | –
24 | CS(=O)(=O)N1CC(CC#N)(n2ccc(-c3nc(-c4ccc(O)c(F)c4)cc4ncccc34)n2)C1 [Example 260, [3-{3-[7-(3-fluoro-4-hydroxyphenyl)-1,6-naphthyridin-5-yl]-1H-pyrazol-1-yl}-1-(methylsulfonyl)azetidin-3-yl]acetonitrile] | 6.49 | 7.57 | 6.70 | < 5.00 | – | – | – | –
